The values that follow come from US7022317B2, “Heterocyclic derivatives of 2-oxothiazolidine-4-carboxylic acid, and use as active photoprotective agents” (L'Oreal, priority 2003, dated 2006).

The subject of this assay is keratinocytes. The assay can be described thus: Active photoprotection against UVA oxidative stress induced on keratinocytes (DCFH-DA fluorescent probe). The format is cell-based. The conditions noted are these: for % of fluorescence relative to the control cells exposed to UVA, TEST 1 / % of fluorescence relative to the control cells exposed to UVA, TEST 2: 24 hours preincubation, DCF fluorescence after UVA; for % of fluorescence relative to the control cells exposed to UVA, Mean: mean of TEST 1 and TEST 2. As to the method:
The photoprotection evaluation technique is performed according to a well-known method (J. of Photochemistry and Photobiology B: Biology 57 (2000) 102–112 TOBI et al: Glutathione modulates the level of free radicals produced in UVA irradiated cells). This technique uses a fluorescent probe, a marker of intracellular global oxidative stress, 2′,7′-dichlorofluoresceine diacetate (DCFH-DA).
The use of DCFH-DA as an oxidative stress marker is based on its physicochemical properties. It is a nonionic apolar molecular capable of diffusing across cell membranes. Once inside the cell, DCFH-DA is hydrolysed by intracellular esterases to a non-fluorescent compound: DCFH or […]. In the presence of activated oxygen species, DCFH is rapidly oxidized to a highly fluorescent compound: DCF or 2,7-dichlorofluoresceine.
At confluence, the keratinocytes are incubated in the presence of a compound of formula (I) for 24 hours at 37° C., 5% CO2, in the culture medium, according to a dose effect (3 concentrations).
The keratinocytes, pretreated with a compound of formula (I), are rinsed and then incubated in the presence of DCFH-DA in the dark.
After this incubation, the DCFH-DA solution is removed and the cells are then exposed to UVA.
Comment: a non-exposed control plate is stored in the dark, at room temperature.
The fluorescence of the DCF is evaluated immediately after the exposure to UVA, via spectrofluorimetry (excitation: 480 nm; emission: 530 nm).
The results are expressed as % of fluorescence relative to the control cells exposed to UVA: […]

`O=C1NCC(=O)N2C(=O)SCC12` (stereo not shown) [Compound 2, Tetrahydrothiazolo[3,4-a]pyrazine-3,5,8-trione]: the “% of fluorescence relative to the control cells exposed to UVA, TEST 1” value turned out to be 98% (compound at 0.05 mM), 79% (compound at 0.5 mM) and 69% (compound at 5 mM). For the same compound, the “% of fluorescence relative to the control cells exposed to UVA, TEST 2” value by setting is: (compound at 0.05 mM) 86%; (compound at 0.5 mM) 74%; (compound at 5 mM) 58%. Besides, the “% of fluorescence relative to the control cells exposed to UVA, Mean” value by setting is: (compound at 0.05 mM) 92%; (compound at 0.5 mM) 76.5%; (compound at 5 mM) 63.5%. In addition, the “reduction of fluorescence (optimum efficacy)” value (compound at 5 mM, UVA oxidative stress) is “about 36%”.
